Where a name gives a salt, the structure may show the parent alone.
Biological target: T1, PKBα (Homo sapiens, UniProt P31749)
T1 construct: fused on or other part: His6 tag is likely on the Upstate products
Assay: PKB kinase assay (P33-labeled ATP, peptide substrate, filter plate)
Assay type: biochemical
Conditions: with respect to PKBα
Text: The kinase assay for evaluating PKB activity comprises active PKB enzymes, a PKB specific substrate, and P^33-labeled ATP. Two form of PKBα enzymes were used, the full length PKBα and a kinase domain of PKBα with pleckstrin domain (amino acids 1-117) deleted. Both PKB enzymes were obtained from Upstate cell signaling solutions (Cat.# 14-276 and 14-341). The PKB substrate used is a synthetic peptide (ARKRERTYSFGHHA (SEQ ID NO: 1)) as described in Obata et al., J. Biol. Chem. 275 (46), 36108-36115 (2000). The phosphorylated substrate was captured by a phosphocellulose membrane filter plate (MILLIPORE) and measured by a Wallac Microbeta liquid scintillation counter (Perkin Elmer). Table 1 provides the IC50 values obtained for each of the examples with respect to PKBα.

T1 sequence (P31749 118-472 limits assumed): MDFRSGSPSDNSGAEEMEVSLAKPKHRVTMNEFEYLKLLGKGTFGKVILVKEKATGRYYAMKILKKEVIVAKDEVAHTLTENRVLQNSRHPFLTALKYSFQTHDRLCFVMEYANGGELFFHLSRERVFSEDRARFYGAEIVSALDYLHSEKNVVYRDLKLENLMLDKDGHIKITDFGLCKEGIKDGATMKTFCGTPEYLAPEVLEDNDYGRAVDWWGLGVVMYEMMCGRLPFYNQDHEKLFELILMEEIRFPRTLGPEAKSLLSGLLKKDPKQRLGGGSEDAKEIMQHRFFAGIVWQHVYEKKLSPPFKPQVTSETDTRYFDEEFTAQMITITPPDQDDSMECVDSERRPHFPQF

Row | SMILES | IC50
1 | COC(=O)c1nc(NC[C@@H](N)[C@@H](C)c2ccc(C(F)(F)F)nc2)sc1-c1ccc2cnc(F)cc2c1 [Example 11, Methyl 2-((2S,3S)-2-amino-3-(6-(trifluoromethyl)pyridin-3-yl)butylamino)-5-(3-fluoroisoquinolin-6-yl)thiazole-4-carboxylate] | 50 to 1000 nM
2 | N[C@H](CNc1ncc(-c2ccc3cnc(F)cc3c2)s1)Cc1ccc(Cl)c(Cl)c1 [Example 14, N—((S)-2-amino-3-(3,4-dichlorophenyl)propyl)-5-(3-fluoroisoquinolin-6-yl)thiazol-2-amine] | < 50 nM
3 | COCO[C@@H](c1ccc(C(F)(F)F)cc1)[C@H](N)CNc1ncc(-c2ccc3cnc(F)cc3c2)s1 [Example 39] | < 50 nM
4 | N[C@H](CNc1nc(CO)c(-c2ccc3cnc(F)cc3c2)s1)Cc1ccc(C(F)(F)F)cc1 [Example 21, (2-((S)-2-Amino-3-(4-(trifluoromethyl)phenyl)propylamino)-5-(3-fluoroisoquinolin-6-yl)thiazol-4-yl)methanol] | < 50 nM
5 | N[C@H](CNc1ncc(-c2ccc3cnc(F)cc3c2)s1)Cc1ccc(Cl)cc1 [Example 5, N—((S)-2-Amino-3-(4-chlorophenyl)propyl)-5-(3-fluoroisoquinolin-6-yl)thiazol-2-amine] | < 50 nM
6 | COC(=O)c1nc(NC[C@@H](N)Cc2ccc(C(C)(F)F)nc2)sc1-c1ccc2cnc(F)cc2c1 [Example 8, Methyl 2-((S)-2-amino-3-(6-(1,1-difluoroethyl)pyridin-3-yl)propylamino)-5-(3-fluoroisoquinolin-6-yl)thiazole-4-carboxylate] | < 50 nM
7 | CC#Cc1nc(NC[C@@H](N)Cc2ccc(C(F)(F)F)nc2)sc1-c1ccc2cnc(F)cc2c1 [Example 35, N—((S)-2-Amino-3-(6-(trifluoromethyl)pyridin-3-yl)propyl)-5-(3-fluoroisoquinolin-6-yl)-4-(prop-1-ynyl)thiazol-2-amine] | < 50 nM
8 | N[C@H](CNc1ncc(-c2ccc3cnc(F)cc3c2)s1)Cc1ccc2c(c1)OCCO2 [Example 43, N—((S)-2-Amino-3-(2,3-dihydrobenzo[b][1,4]dioxin-6-yl)propyl)-5-(3-fluoroisoquinolin-6-yl)thiazol-2-amine] | < 50 nM
9 | COC[C@@H](c1ccc(C(F)(F)F)cc1)[C@H](N)CNc1ncc(-c2ccc3cnc(F)cc3c2)s1 [Example 32, N-((2S,3S)-2-Amino-4-methoxy-3-(4-(trifluoromethyl)phenyl)butyl)-5-(3-fluoroisoquinolin-6-yl)thiazol-2-amine] | < 50 nM
10 | COCc1nc(NC[C@@H](N)Cc2ccc(C(F)(F)F)cc2)sc1-c1ccc2cnc(F)cc2c1 [Example 24, N—((S)-2-Amino-3-(4-(trifluoromethyl)phenyl)propyl)-5-(3-fluoroisoquinolin-6-yl)-4-(methoxymethyl)thiazol-2-amine] | < 50 nM
11 | COCc1nc(NC[C@@H](N)Cc2ccc(C(C)(F)F)nc2)sc1-c1ccc2cnc(F)cc2c1 [Example 6, N—((S)-2-Amino-3-(6-(1,1-difluoroethyl)pyridin-3-yl)propyl)-5-(3-fluoroisoquinolin-6-yl-4-(methoxymethyl)thiazol-2-amine trifluoroacetate] | < 50 nM
12 | COCc1nc(CC[C@@H](N)Cc2ccc(C(F)(F)F)nc2)sc1-c1ccc2cnc(F)cc2c1 [Example 49, (2R)-4-(5-(3-Fluoroisoquinolin-6-yl)-4-(methoxymethyl)thiazol-2-yl)-1-(6-(trifluoromethyl)pyridin-3-yl)butan-2-amine] | < 50 nM
13 | N[C@H](CCc1ncc(-c2ccc3cnc(F)cc3c2)s1)Cc1ccc(C(F)(F)F)cc1 [Example 48, (2R)-4-(5-(3-Fluoroisoquinolin-6-yl)thiazol-2-yl)-1-(4-(trifluoromethyl)phenyl)butan-2-amine] | 1000 to 10000 nM
14 | N[C@H](CNc1ncc(-c2ccc3cnc(F)cc3c2)s1)CN1CCCC(C(F)(F)F)C1 (stereo partly drawn) [Example 30, N—((R)-2-Amino-3-((3S)-(trifluoromethyl)piperidin-1-yl)propyl)-5-(3-fluoroisoquinolin-6-yl)thiazol-2-amine] | 1000 to 10000 nM
15 | N[C@H](CNc1nc(CO)c(-c2ccc3cnc(F)cc3c2)s1)Cc1ccc(C(F)(F)F)nc1 [Example 16, (2-((S)-2-Amino-3-(6-(trifluoromethyl)pyridin-3-yl)propylamino)-5-(3-fluoroisoquinolin-6-yl)thiazol-4-yl)methanol] | < 50 nM
16 | COC(=O)c1nc(NC[C@@H](N)Cc2ccc(C(F)(F)F)nc2)sc1-c1ccc2cnc(F)cc2c1 [Example 15, Methyl 2-((S)-2-amino-3-(6-(trifluoromethyl)pyridin-3-yl)propylamino)-5-(3-fluoroisoquinolin-6-yl)thiazole-4-carboxylate] | < 50 nM
17 | NC(CCc1nc(CO)c(-c2ccc3cnc(F)cc3c2)s1)Cc1ccc(C(F)(F)F)cc1 (racemic) [Example 51, (±)-(2-(3-Amino-4-(4-(trifluoromethyl)phenyl)butyl)-5-(3-fluoroisoquinolin-6-yl)thiazol-4-yl)methanol] | 50 to 1000 nM
18 | COCc1nc(NCC(N)[C@@H](C)c2ccc(C(F)(F)F)cc2)sc1-c1ccc2cnc(F)cc2c1 (stereo in doubt) [Example 27, N-((2R,3S)-2-Amino-3-(4-(trifluoromethyl)phenyl)butyl)-5-(3-fluoroisoquinolin-6-yl)-4-(methoxymethyl)thiazol-2-amine] | < 50 nM
19 | NC(CNc1ncc(-c2ccc3cnc(F)cc3c2)s1)Cn1ccc(C(F)(F)F)n1 (stereo in doubt) [Example 29, N—((S)-2-Amino-3-(3-(trifluoromethyl)-1H-pyrazol-1-yl)propyl)-5-(3-fluoroisoquinolin-6-yl)thiazol-2-amine] | 50 to 1000 nM
20 | N[C@H](CNc1ncc(-c2ccc3cnc(F)cc3c2)s1)Cc1cnc(F)c(Cl)c1 [Example 40, N—((S)-2-Amino-3-(5-chloro-6-fluoropyridin-3-yl)propyl)-5-(3-fluoroisoquinolin-6-yl)thiazol-2-amine] | 50 to 1000 nM
21 | N[C@@H](CNc1ncc(-c2ccc3cnc(F)cc3c2)s1)Cc1ccc(C(F)(F)F)nc1 [Example 47, (2R)—N^1-(5-(3-Fluoro-6-isoquinolinyl)-1,3-thiazol-2-yl)-3-(6-(trifluoromethyl)-3-pyridinyl)-1,2-propanediamine] | 1000 to 10000 nM
22 | C[C@@H](c1ccc(C(F)(F)F)nc1)[C@H](N)CNc1nc(CO)c(-c2ccc3cnc(F)cc3c2)s1 [Example 12, (2-((2S,3S)-2-Amino-3-(6-(trifluoromethyl)pyridin-3-yl)butylamino)-5-(3-fluoroisoquinolin-6-yl)thiazol-4-yl)methanol] | < 50 nM

Tested on: not listed separately
Assay: In vivo pharmacokinetics, IV and oral gavage
Parameters: species or system male Sprague-Dawley rats
Conditions: male, Sprague-Dawley, plasma; rat, IV 0.5 mg/kg
Method: In vivo pharmacokinetic parameters were determined by measuring systemic plasma exposure in male Sprague-Dawley rats (Charles River Laboratories or Taconic, Oxnard, Calif.) by intravenous administration (N=3 fed rats: 2 mg/kg tail vein injection in DMSO) and oral gavage (N=3 fasted rats: 5 mg/kg in 1% Tween 80-2% HPMC-97% deionized water-pH 2.0 vehicle) (Comparative Example 18′ was only dosed IV and at 0.5 mg/kg). DMSO was obtained from Mallinckrodt Inc.; Tween 80 was obtained from Croda; HPMC is Methocel E50 Premium LV, obtained from Dow Excipients. Following oral administration, blood was drawn (250 μL) at 0.25, 0.5, 1, 2, 4, 6, 8, 12, and 16 hours. Following iv administration, blood was drawn (250 μL) at 0.083, 0.25, 0.5, 1, 2, 4, 6, 8, and 16 hours. Blood samples were drawn using a Culex® In Vivo Sampling System (BASi) and collected in BD Microtainer® tubes containing Lithium Heparin (BD). Plasma was obtained by centrifugation of blood at 14000 g and 2-8° C. for five minutes using an Eppendorf 5417R Centrifuge System. Plasma samples were mixed with 2× volume of acetonitrile (Sigma-Aldrich, St. Louis, Mo.). The mixture was stirred briefly using a vortex mixer and then centrifuged at 2867 g for 5 minutes in a Beckman Coulter Allegra 25R equipped with a Type S5700 rotor. The supernatant was removed and diluted 2× with mobile phase A (5/94.9/0.1 v/v/v MeOH/water/AcOH). Plasma concentrations were determined using liquid chromatography/tandem mass spectrometry, with electrospray ionization (ESI) and multiple reaction monitoring in the positive ion mode (Sciex API 3000 mass spectrometer connected to a Shimadzu LC-20AD pump and a LEAP PAL autosampler. Typical conditions used for HPLC were: mobile phase A=5/94.9/0.1 v/v/v MeOH/water/AcOH and mobile phase B=95/4.9/0.1 v/v/v MeOH/water/AcOH; HPLC column was a Varian MonoChrom C18.3μ for 2×30 mm and 51.1 for 2×50 mm) Instrument response was calibrated by a standard curve over 0.1-2000 ng/mL concentration range, and the lower limit of quantitation was 0.1-2.5 ng/mL. Peak areas were integrated on a Windows 2000 computer using the Sciex program Analyst® (Version 1.4.1). Following peak area integration, the data were exported to the software package (Watson® Non-GLP PROD (Version 7.0.0.01, Thermo Electron Corp., Waltham, Mass.)), where concentrations were determined by a weighted linear regression of peak area versus the nominal concentrations of the calibration standards. Calculations were performed on unrounded numbers. The Watson® Non-GLP PROD software was used to determine precision and accuracy for the calibration standards. Noncompartmental analysis of plasma concentration data was used to generate PK parameters such as clearance (CL, L/h/kg), volume of distribution (Vss, L/kg), area under the curve (AUC, ng·h/mL) and secondary parameters such as half-life (t1/2, h) and oral bioavailability (% F, %). This was done using WinNonlin Enterprise software (Version 5.1.1, from Pharsight Corp., Mountain View, Calif.). References for pharmacokinetic analysis include: Gabrielsson and Weiner (1997) Pharmacokinetic and Pharmacodynamic Data Analysis Concepts and Applications, 2nd ed., Swedish Pharmaceutical Press, Stockholm; Gibaldi and Perrier (1982) Pharmacokinetics, 2nd ed., Marcel Dekker, New York. Rowland and Tozer (1995) Clinical Pharmacokinetics: Concepts and Applications, 3rd ed., Lippincott Williams & Wilkins, Philadelphia.

Row | SMILES | clearance
23 | COCc1nc(NC[C@@H](N)Cc2ccc(C(F)(F)F)nc2)sc1-c1ccc2cnccc2c1 [Comparative Example 18′, (S)—N-1-(5-(Isoquinolin-6-yl)-4-(methoxymethyl)thiazol-2-yl)-3-(6-(trifluoromethyl)pyridin-3-yl)propane-1,2-diamine, reference compound] | 237 mL/min/kg

Same assay, conditions: male, Sprague-Dawley, plasma; rat, IV 0.5 mg/kg; read-out: IV AUClast

Row | SMILES | AUC(0-t)
24 | COCc1nc(NC[C@@H](N)Cc2ccc(C(F)(F)F)nc2)sc1-c1ccc2cnccc2c1 [Comparative Example 18′, (S)—N-1-(5-(Isoquinolin-6-yl)-4-(methoxymethyl)thiazol-2-yl)-3-(6-(trifluoromethyl)pyridin-3-yl)propane-1,2-diamine, reference compound] | 33 ng·h/mL

Same assay, conditions: male, Sprague-Dawley, plasma; rat, IV 0.5 mg/kg; read-out: IV Cmax

Row | SMILES | Cmax
25 | COCc1nc(NC[C@@H](N)Cc2ccc(C(F)(F)F)nc2)sc1-c1ccc2cnccc2c1 [Comparative Example 18′, (S)—N-1-(5-(Isoquinolin-6-yl)-4-(methoxymethyl)thiazol-2-yl)-3-(6-(trifluoromethyl)pyridin-3-yl)propane-1,2-diamine, reference compound] | 73 ng/mL

Same assay, conditions: male, Sprague-Dawley, plasma; rat, IV 0.5 mg/kg; read-out: Vss

Row | SMILES | Vd
26 | COCc1nc(NC[C@@H](N)Cc2ccc(C(F)(F)F)nc2)sc1-c1ccc2cnccc2c1 [Comparative Example 18′, (S)—N-1-(5-(Isoquinolin-6-yl)-4-(methoxymethyl)thiazol-2-yl)-3-(6-(trifluoromethyl)pyridin-3-yl)propane-1,2-diamine, reference compound] | 6.44 L/kg

— patent US20110263647A1 (AMGEN INC., priority 2009, published 2011)
